SMILES strings stand for the structures.

For the experiment, the target named is JAK1 (Homo sapiens, UniProt P23458). The experiment is described as follows: Biochemical Kinase Assay (JAK), 33P-ATP filter-binding. The note with it: Biochemical Kinase Inhibition Assay; potency level of IC50; read-out: JAK1 (range). How it is done: Biochemical Kinase Assay Protocol (JAK) • Reagent: Base Reaction buffer; 20 mM Hepes (pH 7.5), 10 mM MgCl2, 1 mM EGTA, 0.02% Brij™ 35, 0.02 mg/ml BSA, 0.1 mM Na3VO4, 2 mM DTT, 1% DMSO, where required cofactors were added individually to each kinase reaction.
Chain of JAK1 (P23458 whole entry, species assumed): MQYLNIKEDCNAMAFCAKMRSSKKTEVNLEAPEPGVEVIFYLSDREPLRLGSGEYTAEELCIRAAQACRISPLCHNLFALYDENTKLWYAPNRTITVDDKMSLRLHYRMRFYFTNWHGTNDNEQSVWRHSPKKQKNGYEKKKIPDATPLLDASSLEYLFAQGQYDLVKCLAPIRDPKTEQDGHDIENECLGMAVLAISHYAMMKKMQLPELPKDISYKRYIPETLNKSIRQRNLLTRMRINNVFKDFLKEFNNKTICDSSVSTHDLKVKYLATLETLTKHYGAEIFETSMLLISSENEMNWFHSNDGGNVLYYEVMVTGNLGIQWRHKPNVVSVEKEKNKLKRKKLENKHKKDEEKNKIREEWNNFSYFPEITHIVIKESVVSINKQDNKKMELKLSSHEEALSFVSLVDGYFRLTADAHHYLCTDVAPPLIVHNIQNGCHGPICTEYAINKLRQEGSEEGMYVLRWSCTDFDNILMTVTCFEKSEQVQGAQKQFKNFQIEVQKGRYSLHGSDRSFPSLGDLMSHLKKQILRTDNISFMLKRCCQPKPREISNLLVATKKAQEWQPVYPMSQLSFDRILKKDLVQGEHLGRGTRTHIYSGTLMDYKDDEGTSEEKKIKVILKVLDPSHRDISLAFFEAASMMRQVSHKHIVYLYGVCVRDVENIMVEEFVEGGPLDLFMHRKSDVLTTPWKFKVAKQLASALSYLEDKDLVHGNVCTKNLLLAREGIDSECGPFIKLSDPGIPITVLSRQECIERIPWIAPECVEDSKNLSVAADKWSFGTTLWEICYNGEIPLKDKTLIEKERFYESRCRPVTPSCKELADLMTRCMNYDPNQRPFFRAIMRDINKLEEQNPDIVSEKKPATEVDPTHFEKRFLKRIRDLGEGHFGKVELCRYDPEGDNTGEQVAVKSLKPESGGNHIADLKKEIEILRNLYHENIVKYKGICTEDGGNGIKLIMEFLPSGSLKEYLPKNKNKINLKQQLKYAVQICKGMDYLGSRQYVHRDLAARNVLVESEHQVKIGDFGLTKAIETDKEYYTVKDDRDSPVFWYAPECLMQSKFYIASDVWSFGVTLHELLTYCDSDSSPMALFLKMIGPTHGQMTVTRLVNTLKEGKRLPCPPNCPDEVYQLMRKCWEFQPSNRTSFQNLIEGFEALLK
Reaction Procedure: • 1. Prepared indicated substrate in freshly prepared Base Reaction Buffer • 2. Delivered any required cofactors to the substrate solution above • 3. Delivered indicated kinase into the substrate solution and gently mix • 4. Delivered compounds in DMSO into the kinase reaction mixture by Acoustic technology (Echo550; nanoliter range), incubated for 20 minutes at room temperature • 5. Delivered 33P-ATP into the reaction mixture to initiate the reaction. • 6. Incubated kinase reaction for 2 hours at room temperature • 7. Reactions were spotted onto P81 ion exchange paper • 8. Detected kinase activity by filter-binding method.
Compounds according to the present invention were tested in the Biochemical Kinase Assay Protocol. The results are provided below in Table 1, wherein the potency levels A, B, and C in the columns labeled JAK1 (range) correspond to IC50 as follows: A<10 nM; B=10-50 nM and C>50 nM. The Example Number entries formatted ##a represent stereoisomer one and entries formatted ##b represent stereoisomer two.
With `Cc1cc(Nc2nn(C3COCCC3C#N)cc2C(N)=O)cc2c1B(O)OC2` (single isomer, unassigned) [Example 6b, 1-[trans-4-cyanotetrahydropyran-3-yl]-3-[(1-hydroxy-7-methyl-3H-2,1-benzoxaborol-5-yl)amino]pyrazole-4-carboxamide (stereoisomer two)], the IC50 is 10 to 50 nM. The same measure for `CCC1=CB(O)Oc2ccc(Nc3nn([C@@H]4COCC[C@H]4C#N)cc3C(N)=O)cc21` (relative stereo) [Example 33, 1-(trans-4-cyanotetrahydro-2H-pyran-3-yl)-3-[(4-ethyl-2-hydroxy-1,2-benzoxaborinin-6-yl)amino]pyrazole-4-carboxamide]: below 10 nM. Then `CC1=Cc2cc(Nc3nn([C@@H]4COCC[C@H]4C#N)cc3C(N)=O)cc(C)c2OB1O` (relative stereo) [Example 32, 1-[trans-4-cyanotetrahydro-2H-pyran-3-yl]-3-[(2-hydroxy-3,8-dimethyl-1,2-benzoxaborinin-6-yl)amino]pyrazole-4-carboxamide], with below 10 nM; and `CC(C)C1=CB(O)Oc2ccc(Nc3nn([C@@H]4CCCC[C@H]4C#N)cc3C(N)=O)cc21` (relative stereo) [Example 34, 1-(trans-2-cyanocyclohexyl)-3-[(2-hydroxy-4-isopropyl-1,2-benzoxaborinin-6-yl)amino]pyrazole-4-carboxamide], with 10 to 50 nM. The same measure for `N#C[C@@H]1CCOC[C@H]1n1cc(C(N)=O)c(Nc2cc(Cl)c3c(c2)COB3O)n1` (single isomer, unassigned) [Example 52b, 3-((7-chloro-1-hydroxy-1,3-dihydrobenzo[c][1,2]oxaborol-5-yl)amino)-1-(trans-4-cyanotetrahydro-2H-pyran-3-yl)-1H-pyrazole-4-carboxamide]: below 10 nM; for `Cc1cc(Nc2nn([C@@H]3COCC[C@H]3C#N)cc2C(N)=O)cc2c1OB(O)C=C2` (single isomer, unassigned) [Example 27a, 1-[trans-4-cyanotetrahydropyran-3-yl]-3-[(2-hydroxy-8-methyl-1,2-benzoxaborinin-6-yl)amino]pyrazole-4-carboxamide]: 10 to 50 nM. Turning to `N#C[C@@H]1CCOC[C@H]1n1cc(C(N)=O)c(Nc2ccc3c(c2)COB3O)n1` (single isomer, unassigned) [Example 41b, 1-(trans-4-cyanotetrahydro-2H-pyran-3-yl)-3-((1-hydroxy-1,3-dihydrobenzo[c][1,2]oxaborol-5-yl)amino)-1H-pyrazole-4-carboxamide], the IC50 was below 10 nM. Then `CC(C)(C)C1=Cc2cc(Nc3nn([C@@H]4CCCC[C@H]4C#N)cc3C(N)=O)ccc2OB1O` (relative stereo) [Example 21, 3-[(3-tert-butyl-2-hydroxy-1,2-benzoxaborinin-6-yl)amino]-1-(trans-2-cyanocyclohexyl)pyrazole-4-carboxamide], with below 10 nM. The same measure for `N#C[C@@H]1CCOC[C@H]1n1cc(C(N)=O)c(Nc2ccc3c(c2)C(Cl)=CB(O)O3)n1` (single isomer, unassigned) [Example 43b, 3-[(4-chloro-2-hydroxy-1,2-benzoxaborinin-6-yl)amino]-1-[trans-4-cyanotetrahydro-2H-pyran-3-yl]pyrazole-4-carboxamide]: below 10 nM.

Take `Cc1cc(Nc2nn(C3COCCC3C#N)cc2C(N)=O)cc2c1B(O)OC2` (stereo not drawn) [Example 6, 1-(trans-4-cyanotetrahydro-2H-pyran-3-yl)-3-[(1-hydroxy-7-methyl-3H-2,1-benzoxaborol-5-yl)amino]pyrazole-4-carboxamide]: the IC50 is below 10 nM.

In the case of `N#C[C@@H]1CCOC[C@H]1n1cc(C(N)=O)c(Nc2ccc3c(c2)COB3O)n1` (single isomer, unassigned) [Example 41a, 1-(trans-4-cyanotetrahydro-2H-pyran-3-yl)-3-((1-hydroxy-1,3-dihydrobenzo[c][1,2]oxaborol-5-yl)amino)-1H-pyrazole-4-carboxamide], the IC50 is below 10 nM. For the molecule `CC1(C)OB(O)c2cc(Nc3nn([C@@H]4COCC[C@H]4C#N)cc3C(N)=O)ccc21` (single isomer, unassigned) [Example 36b, 1-[trans-4-cyanotetrahydro-2H-pyran-3-yl]-3-[(1-hydroxy-3,3-dimethyl-2,1-benzoxaborol-6-yl)amino]pyrazole-4-carboxamide], the IC50 is below 10 nM. The same measure for `CC1=C(C)c2cc(Nc3nn([C@@H]4CCC[C@H]4C#N)cc3C(N)=O)cc(C)c2OB1O` (relative stereo) [Example 24, 1-(trans-2-cyanocyclopentyl)-3-[(2-hydroxy-3,4,8-trimethyl-1,2-benzoxaborinin-6-yl)amino]pyrazole-4-carboxamide]: 10 to 50 nM; for `CC1=C(C)c2cc(Nc3nn([C@@H]4CCCC[C@H]4C#N)cc3C(N)=O)cc(C)c2OB1O` (relative stereo) [Example 25, 1-(trans-2-cyanocyclohexyl)-3-[(2-hydroxy-3,4,8-trimethyl-1,2-benzoxaborinin-6-yl)amino]pyrazole-4-carboxamide]: 10 to 50 nM; for `N#C[C@@H]1CCOC[C@H]1n1cc(C(N)=O)c(Nc2ccc3c(c2)B(O)OCC3)n1` (single isomer, unassigned) [Example 42b, 1-[trans-4-cyanotetrahydro-2H-pyran-3-yl]-3-[(1-hydroxy-3,4-dihydro-2,1-benzoxaborinin-7-yl)amino]pyrazole-4-carboxamide]: below 10 nM.

Turning to `N#CC1CCOCC1n1cc(C(N)=O)c(Nc2ccc3c(c2)B(O)OCC3)n1` (stereo not drawn) [Example 42, 1-[trans-4-cyanotetrahydro-2H-pyran-3-yl]-3-[(1-hydroxy-3,4-dihydro-2,1-benzoxaborinin-7-yl)amino]pyrazole-4-carboxamide], the IC50 was below 10 nM. The same measure for `N#C[C@@H]1CCC[C@H]1n1cc(C(N)=O)c(Nc2ccc3c(c2)C=CB(O)O3)n1` (relative stereo) [Example 8, 1-(trans-2-cyanocyclopentyl)-3-[(2-hydroxy-1,2-benzoxaborinin-6-yl)amino]pyrazole-4-carboxamide]: below 10 nM. With `N#C[C@@H]1CCOC[C@H]1n1cc(C(N)=O)c(Nc2cc3c(c(OC(F)(F)F)c2)OB(O)C=C3)n1` (single isomer, unassigned) [Example 53a, 1-[trans-4-cyanotetrahydro-2H-pyran-3-yl]-3-[[2-hydroxy-8-(trifluoromethoxy)-1,2-benzoxaborinin-6-yl]amino]pyrazole-4-carboxamide], the IC50 is above 50 nM. As to `Cc1cc(Nc2nn(C3COCCC3C#N)cc2C(N)=O)cc2c1OB(O)C=C2` (stereo not drawn) [Example 27, 1-[trans-4-cyanotetrahydro-2H-pyran-3-yl]-3-[(2-hydroxy-8-methyl-1,2-benzoxaborinin-6-yl)amino]pyrazole-4-carboxamide], the IC50 is below 10 nM. The same measure for `N#C[C@@H]1CCOC[C@H]1n1cc(C(N)=O)c(Nc2ccc3c(c2)B(O)OC3)n1` (single isomer, unassigned) [Example 16b, 1-(trans-4-cyanotetrahydro-2H-pyran-3-yl)-3-((1-hydroxy-1,3-dihydrobenzo[c][1,2]oxaborol-6-yl)amino)-1H-pyrazole-4-carboxamide]: below 10 nM. Turning to `N#C[C@@H]1CCOC[C@H]1n1cc(C(N)=O)c(Nc2cc3c(c(C4CC4)c2)OB(O)C=C3)n1` (single isomer, unassigned) [Example 55a, 1-[trans-4-cyanotetrahydro-2H-pyran-3-yl]-3-[(8-cyclopropyl-2-hydroxy-1,2-benzoxaborinin-6-yl)amino]pyrazole-4-carboxamide], the IC50 was below 10 nM. Then `N#C[C@@H]1CCOC[C@H]1n1cc(C(N)=O)c(Nc2ccc3c(c2)C=CB(O)O3)n1` (single isomer, unassigned) [Example 51b, 1-[trans-4-cyanotetrahydro-2H-pyran-3-yl]-3-[(2-hydroxy-1,2-benzoxaborinin-6-yl)amino]pyrazole-4-carboxamide], with below 10 nM. The same measure for `N#CC1CCOCC1n1cc(C(N)=O)c(Nc2cc(F)c3c(c2)C=CB(O)O3)n1` (stereo not drawn) [Example 44, 1-[trans-4-cyanotetrahydro-2H-pyran-3-yl]-3-[(8-fluoro-2-hydroxy-1,2-benzoxaborinin-6-yl)amino]pyrazole-4-carboxamide]: below 10 nM.

With `N#C[C@@H]1CCOC[C@H]1n1cc(C(N)=O)c(Nc2cc(F)c3c(c2)B(O)OC3)n1` (relative stereo) [Example 1, 1-[trans-4-cyanotetrahydro-2H-pyran-3-yl]-3-[(4-fluoro-1-hydroxy-3H-2,1-benzoxaborol-6-yl)amino]pyrazole-4-carboxamide], the IC50 was 10 to 50 nM. For `CC1=Cc2cc(Nc3nn(C4COCCC4C#N)cc3C(N)=O)cc(F)c2OB1O` (stereo not drawn) [Example 14, 1-(trans-4-cyanotetrahydro-2H-pyran-3-yl)-3-[(8-fluoro-2-hydroxy-3-methyl-1,2-benzoxaborinin-6-yl)amino]pyrazole-4-carboxamide], the IC50 was below 10 nM. Turning to `CC1=CB(O)Oc2c(C)cc(Nc3nn([C@@H]4COCC[C@H]4C#N)cc3C(N)=O)cc21` (single isomer, unassigned) [Example 47a, 1-[trans-4-cyanotetrahydro-2H-pyran-3-yl]-3-[(2-hydroxy-4,8-dimethyl-1,2-benzoxaborinin-6-yl)amino]pyrazole-4-carboxamide], the IC50 is below 10 nM.

(Values after patent publication US11827657B2, “Boron containing pyrazole compounds, compositions comprising them, methods and uses thereof” (BOEHRINGER INGELHEIM ANIMAL HEALTH USA INC., priority 2020, dated 2023).)
